The test system of data set [1] is rat insulinoma INS-1 cells. As to the kind of experiment: in vitro glucose-stimulated insulin secretion (GSIS) in rat insulinoma INS-1 cells. It is filed as cell-based. As to conditions: 1 hour glucose, then 2 hour incubation; ELISA; FIG. 4B. An excerpt:
X is a known inducer of GSIS.
For orientation: ELISA stands for enzyme-linked immunosorbent assay.

Data set [2] relates to HFD-fed mice. As to the kind of experiment: glucose tolerance test (GTT) model in HFD-fed mice. It is filed as in vivo. The protocol:
Cages were changed once, then changed once a week.
The mice administered the above treatment by i.v. injections. The mice were then fasted for 18 hours and administered a dose of 2 g/kg glucose by i.v. injections. Blood samples were drawn by tail clip bleeding at 15, 30 and 60 minutes post dosing and cardiac bleeding was used at 2 hours after glucose injection as end-point.

For data set [3], the system named is HFD-fed mice. As to the kind of experiment: longer-term obesity model in HFD-fed mice. The protocol: Mice (Male C57BL/6) were of approximately 13 weeks of age were housed 4 mice per cage. Following 2 weeks of acclimation, mice were introduced to 60% kcal HFD (Research Diets D12492). Cages were changed once, then changed once a week. Weekly body weights and non-fasted blood glucose were collected.
Mice were injected by tail vein with vehicle or the drugs on Day 0, Day 4, Day 7, Day 10, Day 14, and Day 18. Body weights were measured every 2 days. Change in body weight was calculated and plotted.
Cumulative food intake was measured between day 0 and 3, between day 4 and 7, between day 7 and day 11, and between day 11 and day 14, and represented as average daily food intake. For food consumption, remaining food was weighed on days 3, 8, and 15, and subtracted from the starting weight. This value was then normalized to the number of mice in the cage, and the number of days the mice had access to the food prior to weighing.
Blood glucose levels were measured on Days 0, 1, 10 and 15 and plotted.
On day 19 during terminal necropsy, liver and subcutaneous white adipose tissue were recovered weighed from treated animals.
To further analyze the changes in liver, histopathological analysis was conducted. Briefly, the liver tissue was stained with hematoxylin and eosin (H&E) and evaluated using standard techniques.

The target in the next data set is T1, GIP receptor (GIPR) (Rattus norvegicus, UniProt P43219).
T1 construct: endogenous in cells; host or cells: rat INS-1 insulinoma cells (derivatives with a cAMP-luciferase reporter or pGloSensor-22F)
T1 sequence (P43219 19-455): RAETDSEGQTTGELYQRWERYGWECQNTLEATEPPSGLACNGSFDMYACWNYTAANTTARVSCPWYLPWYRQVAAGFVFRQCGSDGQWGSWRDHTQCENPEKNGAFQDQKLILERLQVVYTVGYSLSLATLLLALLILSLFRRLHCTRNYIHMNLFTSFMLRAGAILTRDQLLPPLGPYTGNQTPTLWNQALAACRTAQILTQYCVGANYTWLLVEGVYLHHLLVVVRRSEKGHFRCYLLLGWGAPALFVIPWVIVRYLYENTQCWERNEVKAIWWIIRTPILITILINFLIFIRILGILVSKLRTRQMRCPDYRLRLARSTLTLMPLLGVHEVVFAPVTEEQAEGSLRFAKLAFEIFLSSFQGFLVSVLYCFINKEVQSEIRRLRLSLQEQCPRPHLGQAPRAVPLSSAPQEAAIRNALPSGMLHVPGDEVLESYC
As to the kind of experiment: cAMP-Glo assay in rat insulinoma INS-1 cells harboring a cAMP-luciferase reporter gene. Type of data set: cell-based. As to conditions: 1 hour glucose, then 2 hour incubation with increasing amounts; FIG. 4A. An excerpt:
Rat insulinoma INS-1 cells harboring a cAMP-luciferase reporter gene were used to study the activation of GIPR. Without wishing to be bound by theory, the activation of GIPR leads to temporary depletion of ATP because of consumption of ATP in cyclization reaction to produce cAMP as well as by phosphorylation by protein kinase A of its substrate. Without wishing to be bound by theory, the temporary depletion of ATP leads to an inhibition of luciferase activity, which needs ATP as a substrate.
For orientation: In a reporter assay the amount or activity of a reporter protein is the signal.

Consider two molecules from patent publication US12145975B2, “Fusion proteins for the treatment of cardiometabolic diseases” (Shattuck Labs, Inc., priority 2022, dated 2024).

As for “GLP-1-Fc-GIP(Ag): chimeric protein: GLP-1 fused to GIP agonist (amino acids 1-42) via IgG1 hinge-CH2-CH3 Fc domain; SEQ ID NO: 93”, the “insulin in the culture supernatant (glucose-stimulated insulin secretion)” value in data set [1] is recorded as “stimulated insulin production to a similar, if not greater magnitude than dulaglutide or tirzepatide”. The “serum insulin following glucose administration (time course)” value in the data set on HFD-fed mice [2] (GTT, FIG. 7C) was “rapid induction of insulin”. Moreover, the glucose tolerance result in the data set with HFD-fed mice [2] (GTT, summary of Example 11) is “improved glucose tolerance”. For the same molecule, the “serum glucose following glucose administration (time course)” value in the data set with HFD-fed mice [2] (i.v. treatment, 18 hours fast, 2 g/kg glucose i.v., tirzepatide 1.25 mpk, fusion protein 5 mpk, mRNA 1 mpk, FIG. 7A) was “much smaller increase in serum glucose”. Besides, the “blood glucose levels compared to the untreated mice” value with HFD-fed mice [3] (Days 0, 1, 10 and 15, FIG. 8E) is recorded as “decrease in blood glucose”. Moreover, in the data set on HFD-fed mice [3] (FIG. 8B), the “weights of individual mice” value was “induced weight loss”. Moreover, the “plasma insulin levels on Day 15” value with HFD-fed mice [3] (FIG. 8C right panel) is on record as “significant decrease in the levels of insulin”. Besides, the “average daily food intake compared to the untreated mice” value in the data set on HFD-fed mice [3] (FIG. 8D) was “decrease in food intake”. For the same molecule, the “collagen staining (fibrosis), liver sections stained with picrosirius red” value in the data set with HFD-fed mice [3] (FIG. 8I) is on record as “decrease in collagen staining”. In addition, the “hepatocellular ballooning and steatosis (liver H&E histology)” value in the data set with HFD-fed mice [3] (FIG. 8J) is “decrease in hepatocellular ballooning and steatosis”. In the data set on HFD-fed mice [3] (between 15 and 120 minutes after treatment, FIG. 8C left panel), the “plasma insulin levels on Day 1” value was “rapid decrease in insulin levels”. Besides, the “liver weight, PBS control versus treated mice” value in the data set with HFD-fed mice [3] (day 19 terminal necropsy, FIG. 8G) is listed as “the livers of control mice that received only PBS were much heavier compared to the mice receiving treatments”. Further, the “subcutaneous white adipose tissue (sWAT) weight” value with HFD-fed mice [3] (day 19 terminal necropsy, FIG. 8H) is on record as “decreased”. Besides, the “tolerability / clinical observations” value in the data set with HFD-fed mice [3] (obesity model, repeated tail vein dosing) was “well tolerated and no overt toxicities were noted”. In addition, the “collagen staining (fibrosis) in comparison with tirzepatide or dulaglutide” value in the data set on HFD-fed mice [3] (picrosirius red, FIG. 8I) was “greater decrease in collagen staining compared to the livers from mice treated with tirzepatide or dulaglutide”. Also, the “change in body weight” value with HFD-fed mice [3] (tail vein on Day 0, 4, 7, 10, 14, 18, dulaglutide 1 mpk, tirzepatide 0.5 mpk, fusion protein 5 mpk, mRNA 1 mpk, FIG. 8A) was “progressive weight loss”.

B1: GIP(Ag)-Fc-FGF19: chimeric protein: GIP fused to FGF19 via IgG1 hinge-CH2-CH3 Fc domain; SEQ ID NO: 88 (protein)
chain: YAEGTFISDYSIAMDKIHQQDFVNWLLAQKGKKNDWKHNITQPCPAPEAAGGPSVFLFPPKPKDTLMISRTPEVTCVVVDVSHEDPEVKFNWYVDGVEVHNAKTKPREEQYNSTYRVVSVLTVLHQDWLNGKEYKCKVSNKALPAPIEKTISKAKGQPREPQVYTLPPSRDELTKNQVSLTCLVKGFYPSDIAVEWESNGQPENNYKTTPPVLDSDGSFFLYSKLTVDKSRWQQGNVFSCSVMHEALHNHYTQKSLSLSPGKIEGRMDRDSSPLVHYGWGDPIRLRHLYTSGPHGLSSCFLRIRADGVVDCARGQSAHSLLEIKAVALRTVAIKGVHSVRYLCMGADGKMQGLLQYSEEDCAFEEEIRPDGYNVYRSEKHRLPVSLSSAKQRQLYKNRGFLPLSHFLPMLPMVPEEPEDLRGHLESDMFSSPLETDSMDPFGLVTGLEAVRSPSFEK
As to B1, in the data set with GIP receptor (GIPR), the “inhibition of luciferase (activation of GIPR)” value is “dose-dependent and saturable inhibition of luciferase with similar potency”. Moreover, the “insulin in the culture supernatant (glucose-stimulated insulin secretion)” value in data set [1] is on record as “stimulated insulin production to a similar, if not greater magnitude than dulaglutide or tirzepatide”.
